Measured values as given in patent US10738056B2 (Aduro BioTech, Inc., priority 2017, dated 2020).
pIC50: −log10 of the molar value.

What was measured:
[1] = tested on: RANTES/CCL5 secretion by Trex1-KO BMM; test: Inhibition of RANTES/CCL5 secretion by Trex1-KO bone marrow-derived macrophages; format: cell-based, mice; design: key to BMM IC50 R (RANTES): A: an IC50 value less than 5 μM; B: an IC50 value between 5 and 20 μM; where an IC50 value could not be calculated from the data; conditions: RANTES secretion; for pIC50: Mus musculus, Macrophage, read-out: BMM IC50 R (RANTES)
Description: (§1) A cellular assay can be used to asses the compounds of the invention for their ability to inhibit cytokine production. Bone marrow macrophages harvested from mice can be used to determine response as a function of compound concentration.
(§2) The inhibition of secreted cytokine was measured in bone marrow-derived macrophages (BMMs) from diseased mice to evaluate the potency of compounds of the invention as described herein. […] To derive bone marrow macrophages, marrow extracted from the femurs and tibias were harvested from Trex1-KO mice was cultured in growth media supplemented with macrophage colony-stimulating factor (M-CSF). Differentiated BMM were harvested and frozen for subsequent experimentation. For treatment with compound C1089 (see Example 13), a frozen stock of Trex1-KO BMM was thawed and 1×10^5 cells were plated in 96 well format. BMMs were treated with a dilution series of C1089 and incubated overnight at 37° C. 5% CO2, at which point cellular supernatants were harvested and stored at −80° C. for subsequent analysis. The media used for this dilution series was without FBS. Remaining cells were evaluated for viability using Cell Titer Glo 2.0 kit according to the manufacturer instructions. BMM supernatants were evaluated for the secreted cytokine […] (RANTES/CCL5) or for secreted cytokine monocyte chemoattractant protein 1 (MCP-1/CCL2) using cytometric bead array mouse Flex Set kits (BD Biosciences). Cytokine concentration was calculated from a standard curve and normalized to vehicle (DMSO) treated cells.

[2] = tested on: cGAS/STING pathway in THP1 cells; test: THP1 cell-based cGAS/STING pathway activity assay (IRF-3-linked luciferase reporter); conditions: Homo sapiens, THP-1
In short: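 THP1 cells carrying an IRF-3-driven luciferase reporter were read across a range of compound concentrations, and IC50 values were derived from these concentration responses; the assay upper limit was 100 μM.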

[3] = tested on: MCP-1/CCL2 secretion by Trex1-KO BMM; test: Inhibition of MCP-1/CCL2 secretion by Trex1-KO bone marrow-derived macrophages; format: cell-based, mice; design: key to BMM IC50 M (MCP-1): A: an IC50 value less than 5 μM; B: an IC50 value between 5 and 20 μM; where an IC50 value could not be calculated from the data; conditions: MCP-1 secretion; for pIC50: Mus musculus, Macrophage, read-out: BMM IC50 M (MCP-1)
Description: as §1, §2

[4] = biological target: Human cGAS amino acids 155-522 (Homo sapiens (Human), UniProt Q8N884); test: cGAS biochemical activity assay (ATP remaining, Kinase-Glo Max luminescence); conditions: human cGAS 155-522, ATP remaining (Kinase-Glo Max); read-out: cGAS IC50
Chain of Human cGAS amino acids 155-522 (Q8N884 157-522): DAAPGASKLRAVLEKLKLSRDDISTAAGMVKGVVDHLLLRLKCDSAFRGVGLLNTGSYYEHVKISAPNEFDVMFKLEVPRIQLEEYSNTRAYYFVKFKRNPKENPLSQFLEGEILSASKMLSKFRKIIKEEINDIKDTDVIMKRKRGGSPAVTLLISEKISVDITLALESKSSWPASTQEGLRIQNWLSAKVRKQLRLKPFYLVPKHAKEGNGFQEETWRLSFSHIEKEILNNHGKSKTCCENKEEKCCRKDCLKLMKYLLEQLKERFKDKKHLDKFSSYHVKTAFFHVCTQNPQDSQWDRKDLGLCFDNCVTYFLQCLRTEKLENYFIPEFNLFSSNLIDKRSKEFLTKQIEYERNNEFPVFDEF

SMILES | pIC50 [1] | pIC50 [2] | BMM IC50 M (MCP-1) [3] | pIC50 [4] | BMM IC50 R (RANTES) [1] | pIC50 [3]
Cc1[nH]c2c(-c3ccccc3)c(C(F)(F)F)nn2c(=O)c1-c1nc2c(OCC3CC3)cccc2o1 [Compound C1045, 6-(4-(cyclopropylmethoxy)benzo[d]oxazol-2-yl)-5-methyl-3-phenyl-2-(trifluoromethyl)pyrazolo[1,5-a]pyrimidin-7(4H)-one] | 4.70 to 5.30 | > 4.70 | C | > 4.70 | – | –
COc1ccc(Cl)c2oc(-c3c(C)[nH]c4c(-c5ccccc5)c(C(F)(F)F)nn4c3=O)nc12 [Compound C1094, 6-(7-chloro-4-methoxybenzo[d]oxazol-2-yl)-5-methyl-3-phenyl-2-(trifluoromethyl)pyrazolo[1,5-a]pyrimidin-7(4H)-one] | > 5.30 | > 4.70 | C | > 4.70 | – | –
COc1cccc2oc(-c3c(C(F)(F)F)[nH]c4c(-c5ccccc5)c(C(F)(F)F)nn4c3=O)nc12 [Compound C1077, 6-(4-methoxybenzo[d]oxazol-2-yl)-3-phenyl-2,5-bis(trifluoromethyl)pyrazolo[1,5-a]pyrimidin-7(4H)-one] | – | > 4.70 | C | > 4.70 | C | –
COc1cccc2oc(-c3c(Cl)[nH]c4c(-c5ccccc5)c(C(F)(F)F)nn4c3=O)nc12 [Compound C1071, 5-chloro-6-(4-methoxybenzo[d]oxazol-2-yl)-3-phenyl-2-(trifluoromethyl)pyrazolo[1,5-a]pyrimidin-7(4H)-one] | – | > 4.70 | C | > 4.70 | C | –
Cc1[nH]c2c(-c3ccccc3)c(C(F)(F)F)nn2c(=O)c1C(=O)Nc1cc(Br)cc(CN(C)C)c1 [Compound A1139, N-(3-bromo-5-((dimethylamino)methyl)phenyl)-5-methyl-7-oxo-3-phenyl-2-(trifluoromethyl)-4,7-dihydropyrazolo[1,5-a]pyrimidine-6-carboxamide] | – | > 4.70 | C | > 4.70 | C | –
Cc1[nH]c2c(-c3ccccc3)c(C(F)(F)F)nn2c(=O)c1-c1nc2c(Cl)cccc2o1 [Compound C1055, 6-(4-chlorobenzo[d]oxazol-2-yl)-5-methyl-3-phenyl-2-(trifluoromethyl)pyrazolo[1,5-a]pyrimidin-7(4H)-one] | – | > 4.70 | C | > 4.70 | C | –
Cc1[nH]c2c(-c3ccccc3)c(C(F)(F)F)nn2c(=O)c1C(=O)Nc1nc(C2CC2)cs1 [Compound A1095, N-(4-cyclopropylthiazol-2-yl)-5-methyl-7-oxo-3-phenyl-2-(trifluoromethyl)-4,7-dihydropyrazolo[1,5-a]pyrimidine-6-carboxamide] | – | > 4.70 | C | > 4.70 | C | –
COc1ccc(C)c2oc(-c3c(C)[nH]c4c(-c5ccccc5)c(C(F)(F)F)nn4c3=O)nc12 [Compound C1092, 6-(4-methoxy-7-methylbenzo[d]oxazol-2-yl)-5-methyl-3-phenyl-2-(trifluoromethyl)pyrazolo[1,5-a]pyrimidin-7(4H)-one] | – | < 4.00 | C | > 4.70 | C | –

Continued, values first:

pIC50 [1] | pIC50 [2] | BMM IC50 M (MCP-1) [3] | pIC50 [4] | BMM IC50 R (RANTES) [1] | pIC50 [3] | SMILES
– | > 4.70 | – | > 4.70 | C | 4.70 to 5.30 | COc1cccc2oc(-c3c(COC4CCCCO4)[nH]c4c(-c5ccccc5)c(C(F)(F)F)nn4c3=O)nc12 (centres unmarked) [Compound C1134, 6-(4-methoxybenzo[d]oxazol-2-yl)-3-phenyl-5-(((tetrahydro-2H-pyran-2-yl)oxy)methyl)-2-(trifluoromethyl)pyrazolo[1,5-a]pyrimidin-7(4H)-one]
> 5.30 | > 4.70 | – | > 4.70 | – | 4.70 to 5.30 | COc1cc(C)cc2oc(-c3c(C)[nH]c4c(-c5ccccc5)c(C(F)(F)F)nn4c3=O)nc12 [Compound C1098, 6-(4-methoxy-6-methylbenzo[d]oxazol-2-yl)-5-methyl-3-phenyl-2-(trifluoromethyl)pyrazolo[1,5-a]pyrimidin-7(4H)-one]
– | > 4.70 | – | > 4.70 | C | > 5.30 | COc1cccc2oc(-c3c(SC)[nH]c4c(-c5ccccc5)c(C(F)(F)F)nn4c3=O)nc12 [Compound C1121, 6-(4-methoxybenzo[d]oxazol-2-yl)-5-(methylthio)-3-phenyl-2-(trifluoromethyl)pyrazolo[1,5-a]pyrimidin-7(4H)-one]
– | > 4.70 | – | > 4.70 | C | > 5.30 | COc1ccc(C(N)=O)c2oc(-c3c(C)[nH]c4c(-c5ccccc5)c(C(F)(F)F)nn4c3=O)nc12 [Compound C1113, 4-methoxy-2-(5-methyl-7-oxo-3-phenyl-2-(trifluoromethyl)-4,7-dihydropyrazolo[1,5-a]pyrimidin-6-yl)benzo[d]oxazole-7-carboxamide]
– | 4.00 to 4.70 | C | > 4.70 | C | – | COCc1[nH]c2c(-c3ccccc3)c(C(F)(F)F)nn2c(=O)c1-c1nnc(C2CCCC2)o1 [Compound D1018, 6-(5-cyclopentyl-1,3,4-oxadiazol-2-yl)-5-(methoxymethyl)-3-phenyl-2-(trifluoromethyl)pyrazolo[1,5-a]pyrimidin-7(4H)-one]
– | > 4.70 | C | > 4.70 | C | – | CCOC(=O)C1CC=C(c2[nH]c3c(-c4ccccc4)c(C(F)(F)F)nn3c(=O)c2-c2nc3c(OC)cccc3o2)CC1 (centres unmarked) [Compound C1233, ethyl 4-(6-(4-methoxybenzo[d]oxazol-2-yl)-7-oxo-3-phenyl-2-(trifluoromethyl)-4,7-dihydropyrazolo[1,5-a]pyrimidin-5-yl)cyclohex-3-ene-1-carboxylate]
– | < 4.00 | C | > 4.70 | C | – | Cc1[nH]c2c(-c3ccccc3)c(C(F)(F)F)nn2c(=O)c1-c1nc2c(OCC(=O)O)cccc2o1 [Compound C1117, 2-((2-(5-methyl-7-oxo-3-phenyl-2-(trifluoromethyl)-4,7-dihydropyrazolo[1,5-a]pyrimidin-6-yl)benzo[d]oxazol-4-yl)oxy)acetic acid]
– | 4.00 to 4.70 | C | > 4.70 | C | – | Cc1[nH]c2c(-c3ccccc3)c(C(F)(F)F)nn2c(=O)c1-c1nc(C(=O)O)c(C2CCCCC2)o1 [Compound C1169, 5-cyclohexyl-2-(5-methyl-7-oxo-3-phenyl-2-(trifluoromethyl)-4,7-dihydropyrazolo[1,5-a]pyrimidin-6-yl)oxazole-4-carboxylic acid]
– | > 4.70 | C | > 4.70 | C | – | COc1ccc(N)c2oc(-c3c(C)[nH]c4c(-c5ccccc5)c(C(F)(F)F)nn4c3=O)nc12 [Compound C1154, 6-(7-amino-4-methoxybenzo[d]oxazol-2-yl)-5-methyl-3-phenyl-2-(trifluoromethyl)pyrazolo[1,5-a]pyrimidin-7(4H)-one]
